Laboratory results from paper PMC8877962, “New Preservative-Free Formulation for the Enhanced Ocular Bioavailability of Prostaglandin Analogues in Glaucoma” (Pharmaceutics, 2022).
Where two headings read alike, the source gives them in different places. Blank lines part the entries; values can stand above or below the molecule they belong to.

Legend:
[1] = Differential scanning calorimetry of travoprost:excipient blends; format: physicochemical
Experimental: The differential scanning calorimetry (DSC) studies were performed using a DSC 3 thermal analysis device (Mettler-Toledo GmbH, Greinfensee, Switzerland) calibrated upstream with high-purity zinc (99.99%, Tfus = 419.6 ± 0.7 °C, ΔfusH = 107.5 ± 3.2 J.g^−1), high-purity indium (99.99%, Tfus = 156.6 ± 0.3 °C, ΔfusH = 28.45 ± 0.60 J.g^−1) and controlled with both, and Milli-Q water (Merck Millipore, Burlington, MA, USA). Each sample was introduced in a 100 µL aluminum pan which was hermetically sealed afterwards. The conditions of the sample preparation, as well as the applied temperature program, were strictly identical to avoid any thermal history dependence of the samples. The cycle, performed twice on each sample, was freezing from ambient temperature to −80 °C at a rate of 5 °C/min, then holding for 3 min at −80 °C, then heating to 25 °C, at a rate of 5 °C/min under a 60 mL/min dry air flow. Travoprost, NaHA and PS80 were analyzed either alone or as binary drug:excipient blends at different weight ratios (1:3, 1:1 and 3:1, respectively). Measurements were performed on 3 independent samples (n = 3). Thermogram evaluation was performed using STARe version 16.30 (Mettler-Toledo GmbH, Greinfensee, Switzerland).

[2] = design: method as in doi:10.1002/etc.5620171002; conditions: cited from earlier work
[3] = design: method as in doi:10.1007/s11743-000-0113-4; conditions: surface tension measurement; cited from earlier work
[4] = Pyrene fluorescence spectroscopy (micelle formation, CMC determination); format: physicochemical; conditions: pyrene 7.5 µM
Experimental: Pyrene is a lipophilic fluorescent probe often used to determine the critical micellar concentration (CMC) of surfactants. Indeed, it has the interesting feature of being sensitive to the polarity of its environment and partitioning into micelles leading to an hyperchromicity. First, 40 mg of pyrene were dissolved into 10 mL of ethanol, this solution was diluted in water to achieve a stock solution with a concentration of 7.5 µM. This stock solution was used as solvent to prepare PS80 and NaHA solutions of different concentrations in triplicate. Fluorescence measurements were performed using a Varian Cary Eclipse fluorescence spectrophotometer and processed with the Cary Eclipse software version 1.1.132 (Agilent Technologies, Santa Clara, CA, USA). The data were acquired using an excitation wavelength of 230 nm with a 20 nm slit and by recording an emission scan from 350 to 450 nm with a 2.5 nm slit. Peaks 1 and 3, used to determine the fluorescence ratio I1/I3, were at approximately 372 and 383 nm, respectively. PS80 CMC was determined using a sigmoidal non-linear variable slope regression performed using GraphPad Prism version 8.0.2 for windows (GraphPad Software, San Diego, CA, USA). CMC was considered as the abscissa of the point at which the top of the sigmoid and the tangent to the inflection point crossed.

[5] = design: method as in earlier work; conditions: fluorescence-based method using pyrene-3-carboxaldehyde; cited from earlier work
[6] = Travoprost:Excipient mass ratio 1:0 (travoprost alone), n = 3
[7] = Travoprost:Polysorbate 80 mass ratio 1:1
[8] = Travoprost:Polysorbate 80 mass ratio 1:3
[9] = Travoprost:Polysorbate 80 mass ratio 3:1
[10] = Travoprost:Sodium Hyaluronate mass ratio 1:1
[11] = Travoprost:Sodium Hyaluronate mass ratio 1:3
[12] = Travoprost:Sodium Hyaluronate mass ratio 3:1

- Tg [1, 6]: −21.9 ± 0.6 °C
- ΔCp normalized to travoprost content [1, 6]: −0.57 ± 0.05 J/g/K
- Tg ([1]; Travoprost:Excipient mass ratio 1:0 (travoprost alone), n = 3, listed as travoprost): around −22 °C
- Tg [1, 7]: −54.4 ± 0.6 °C
- ΔCp normalized to travoprost content [1, 7]: −2.04 ± 0.06 J/g/K
- Tg [1, 8]: −58.8 ± 0.7 °C
- ΔCp normalized to travoprost content [1, 8]: −2.96 ± 0.07 J/g/K
- Tg [1, 9]: −44.2 ± 0.7 °C
- ΔCp normalized to travoprost content [1, 9]: −1.32 ± 0.06 J/g/K
- Tg [1, 10]: −21.4 ± 0.6 °C
- ΔCp normalized to travoprost content [1, 10]: −0.60 ± 0.05 J/g/K
- Tg [1, 11]: −22.3 ± 0.7 °C
- ΔCp normalized to travoprost content [1, 11]: −0.55 ± 0.05 J/g/K
- Tg [1, 12]: −20.3 ± 0.6 °C
- ΔCp normalized to travoprost content [1, 12]: −0.58 ± 0.06 J/g/K
- shift in the Tg ([1]; in presence of PS80, when increasing the excipient content): −22 to −58 °C
Molecule: CC(C)OC(=O)CCC/C=C\C[C@@H]1[C@@H](/C=C/[C@@H](O)COc2cccc(C(F)(F)F)c2)[C@H](O)C[C@@H]1O [Travoprost]

Molecule: c1cc2ccc3cccc4ccc(c1)c2c34 [pyrene, Pyrene]
- LogP [2]: 6.0

- I1/I3 fluorescence ratio of pyrene with increasing excipient concentration [4]: decrease
Molecule: Polysorbate 80 [PS80]
- CMC [3]: 0.018 mM
- CMC [5]: 0.015 mM
